In US11685744B2, “CDK inhibitors and their use as pharmaceuticals” (Prelude Therapeutics, Incorporated, priority 2020, dated 2023):

Columns and labels:
[1] = Brain-to-plasma ratio (Kp) determination in Sprague-Dawley rats; conditions: male, rat, brain (homogenate) versus plasma, po, 10 mg/kg
[2] = tested on: MCF7 adenocarcinoma cell line; assay: Cell proliferation studies in MCF7 cells (ATP-Lite, 10 days); format: cell-based; conditions: Homo sapiens, 240 h, read-out: PROLIFERATION_CTG_MCF7 IC50
Outline: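 Cells were seeded at 100 or 200 per well in DMEM with 10% FBS and dosed in quadruplicate over a 9-point 3-fold dilution. Incubation lasted 10 days at 37 °C, with media exchange and re-dosing on day 5. Viability was read by ATP-Lite luminescence and normalised to background and DMSO, giving IC50.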

CDK6/Cyclin D1 = CDK6/Cyclin D1 (Homo sapiens (Human), UniProt Q00534); assay: CDK6/CyclinD1 enzymatic activity assay (TR-FRET); format: biochemical; conditions: ATP 250 μM, read-out: CDK6_D1 IC50
CDK6/Cyclin D1, sequence (Q00534 whole entry): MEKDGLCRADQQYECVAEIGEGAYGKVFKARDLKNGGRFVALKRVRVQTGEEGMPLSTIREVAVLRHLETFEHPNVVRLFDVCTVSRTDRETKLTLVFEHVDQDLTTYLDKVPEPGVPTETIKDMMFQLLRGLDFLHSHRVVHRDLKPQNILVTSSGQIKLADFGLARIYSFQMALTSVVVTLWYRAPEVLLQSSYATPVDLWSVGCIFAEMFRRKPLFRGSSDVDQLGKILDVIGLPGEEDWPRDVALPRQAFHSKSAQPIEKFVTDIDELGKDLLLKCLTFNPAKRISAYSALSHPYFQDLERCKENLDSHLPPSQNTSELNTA
CDK6/Cyclin D1, sequence (P24385 whole entry partner): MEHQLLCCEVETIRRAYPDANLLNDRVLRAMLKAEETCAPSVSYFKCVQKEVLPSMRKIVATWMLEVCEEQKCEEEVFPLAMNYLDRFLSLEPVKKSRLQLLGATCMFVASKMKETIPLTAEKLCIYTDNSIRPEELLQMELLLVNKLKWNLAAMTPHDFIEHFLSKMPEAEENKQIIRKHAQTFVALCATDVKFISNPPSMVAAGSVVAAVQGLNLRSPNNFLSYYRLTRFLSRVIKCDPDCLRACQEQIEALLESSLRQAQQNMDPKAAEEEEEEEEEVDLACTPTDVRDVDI
Outline: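 Insect-cell-expressed CDK6/Cyclin D1 (1 nM) phosphorylated ULight-4E-BP1 (100 nM) with 250 μM ATP in HEPES pH 7.4 buffer. After 20 min compound preincubation, reactions were started with 10 mM MgCl2 and run 60 min at 37 °C. EDTA-quenched samples were read by TR-FRET with Eu-anti-P-4E-BP1; IC50 from 9-dose 4-parameter fits.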

CDK4/Cyclin D1 = CDK4/Cyclin D1 (Homo sapiens (Human), UniProt P11802); assay: CDK4/CyclinD1 enzymatic activity assay (TR-FRET); format: biochemical; conditions: ATP 2 mM, read-out: CDK4_D1 IC50
CDK4/Cyclin D1, sequence (P11802 whole entry): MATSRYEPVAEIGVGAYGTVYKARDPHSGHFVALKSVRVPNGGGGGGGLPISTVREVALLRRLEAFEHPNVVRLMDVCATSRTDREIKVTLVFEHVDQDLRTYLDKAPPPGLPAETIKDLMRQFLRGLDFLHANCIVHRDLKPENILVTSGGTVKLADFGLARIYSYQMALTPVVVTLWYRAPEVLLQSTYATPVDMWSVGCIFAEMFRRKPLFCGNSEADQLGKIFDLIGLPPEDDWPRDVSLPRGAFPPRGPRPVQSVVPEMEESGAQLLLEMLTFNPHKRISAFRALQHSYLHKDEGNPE
CDK4/Cyclin D1, sequence (P24385 whole entry partner): as the sequence (P24385 whole entry partner) above
Outline: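 Insect-cell CDK4/Cyclin D1 (1 nM) with ULight-4E-BP1 (100 nM) and 2 mM ATP in HEPES pH 7.4 buffer, preincubated 20 min with compound (9-dose, 3-fold dilutions); 10 mM MgCl2 started the reaction, run 60 min at 37 °C. EDTA/Eu-anti-phospho-4E-BP1 TR-FRET detection; IC50 from 4-parameter Hill fit.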

Compound	Kp at 4 h [1]	IC50 [2]	IC50 (CDK6/Cyclin D1)	IC50 (CDK4/Cyclin D1)
CCN1C2CC1CN(c1ccc(Nc3ncc(F)c(-c4cc5nc(C)n(C(C)C)c5s4)n3)nc1)C2 [Example 74, N-[5-(6-ethyl-3,6-Diazabicyclo[3.1.1]heptan-3-yl)pyridin-2-yl]-5-fluoro-4-(2-methyl-3-propan-2-ylthieno[2,3-d]imidazol-5-yl)pyrimidin-2-amine]	< 1	0.02 to 0.2 µM	0.02 to 0.2 µM	≤ 0.02 µM
Cc1c(-c2nc(Nc3ccc(N4CC5(CCN(C)CC5)C4)cn3)ncc2F)sc2c(C(C)C)cn(C)c(=O)c12 [Example 77, 2-(5-Fluoro-2-((5-(7-methyl-2,7-diazaspiro[3.5]nonan-2-yl)pyridin-2-yl)amino)pyrimidin-4-yl)-7-isopropyl-3,5-dimethylthieno[3,2-c]pyridin-4(5H)-one]	1 to 3	0.02 to 0.2 µM	≤ 0.02 µM	≤ 0.02 µM
Cc1c(-c2nc(Nc3ccc(N4C[C@H]5CN(C)C[C@H]5C4)cn3)ncc2F)sc2c(C(C)C)cn(C)c(=O)c12 [Example 78, 2-(5-Fluoro-2-((5-((3aR,6aS)-5-methylhexahydropyrrolo[3,4-c]pyrrol-2(1H)-yl)pyridin-2-yl)amino)pyrimidin-4-yl)-7-isopropyl-3,5-dimethylthieno[3,2-c]pyridin-4(5H)-one]	1 to 3	0.02 to 0.2 µM	≤ 0.02 µM	≤ 0.02 µM
Cc1c(-c2nc(Nc3ccc(N4C[C@@H]5CN(C)C[C@H]5C4)cn3)ncc2F)sc2c(C(C)C)cn(C)c(=O)c12 [Example 79, 2-(5-Fluoro-2-((5-((3aS,6aS)-5-methylhexahydropyrrolo[3,4-c]pyrrol-2(1H)-yl)pyridin-2-yl)amino)pyrimidin-4-yl)-7-isopropyl-3,5-dimethylthieno[3,2-c]pyridin-4(5H)-one]	< 1	0.02 to 0.2 µM	≤ 0.02 µM	≤ 0.02 µM
[2H]C([2H])([2H])N1CCC(c2ccc(Nc3ncc(F)c(-c4sc5c(C(C)C)cn(C)c(=O)c5c4C)n3)nc2)CC1 [Example 82, 2-(5-Fluoro-2-((5-(1-(methyl-d3)piperidin-4-yl)pyridin-2-yl)amino)pyrimidin-4-yl)-7-isopropyl-3,5-dimethylthieno[3,2-c]pyridin-4(5H)-one]	> 3	0.02 to 0.2 µM	≤ 0.02 µM	≤ 0.02 µM
Cc1c(-c2nc(Nc3ccc(C4CCN(C5CCOC5)CC4)cn3)ncc2F)sc2c(C(C)C)cn(C)c(=O)c12 (centres unmarked) [Example 84, 2-(5-Fluoro-2-((5-(1-(tetrahydrofuran-3-yl)piperidin-4-yl)pyridin-2-yl)amino)pyrimidin-4-yl)-7-isopropyl-3,5-dimethylthieno[3,2-c]pyridin-4(5H)-one]	1 to 3	0.02 to 0.2 µM	≤ 0.02 µM	≤ 0.02 µM
CC(C)c1cn(C)c(=O)c2cc(-c3nc(Nc4ccc(C5CCN(C)CC5)cn4)ncc3F)sc12 [Example 86, 2-(5-Fluoro-2-((5-(1-methylpiperidin-4-yl)pyridin-2-yl)amino)pyrimidin-4-yl)-7-isopropyl-5-methylthieno[3,2-c]pyridin-4(5H)-one]	1 to 3	0.02 to 0.2 µM	0.02 to 0.2 µM	≤ 0.02 µM
CCN1CCC(c2ccc(Nc3ncc(F)c(-c4sc5c(C(C)C)cn(C)c(=O)c5c4C)n3)nc2)CC1 [Example 87, 2-(2-((5-(1-Ethylpiperidin-4-yl)pyridin-2-yl)amino)-5-fluoropyrimidin-4-yl)-7-isopropyl-3,5-dimethylthieno[3,2-c]pyridin-4(5H)-one]	1 to 3	0.02 to 0.2 µM	≤ 0.02 µM	≤ 0.02 µM
Cc1c(-c2nc(Nc3ccc(C4CCCN(C)C4)cn3)ncc2F)sc2c(C(C)C)cn(C)c(=O)c12 (centres unmarked) [Example 88, 2-(5-Fluoro-2-((5-(1-methylpiperidin-3-yl)pyridin-2-yl)amino)pyrimidin-4-yl)-7-isopropyl-3,5-dimethylthieno[3,2-c]pyridin-4(5H)-one]	1 to 3	0.02 to 0.2 µM	0.02 to 0.2 µM	≤ 0.02 µM
Cc1c(-c2nc(Nc3ccc(N4CCN(C(C)C)CC4)cn3)ncc2F)sc2c(C(C)C)cn(C)c(=O)c12 [Example 89, 2-(5-Fluoro-2-((5-(4-isopropylpiperazin-1-yl)pyridin-2-yl)amino)pyrimidin-4-yl)-7-isopropyl-3,5-dimethylthieno[3,2-c]pyridin-4(5H)-one]	> 3	0.02 to 0.2 µM	≤ 0.02 µM	≤ 0.02 µM
CCN1CCN(Cc2ccc(Nc3ncc(F)c(-c4sc5c(C(C)C)cn(C)c(=O)c5c4C)n3)nc2)CC1 [Example 90, 2-(2-((5-((4-Ethylpiperazin-1-yl)methyl)pyridin-2-yl)amino)-5-fluoropyrimidin-4-yl)-7-isopropyl-3,5-dimethylthieno[3,2-c]pyridin-4(5H)-one]	< 1	0.02 to 0.2 µM	0.02 to 0.2 µM	≤ 0.02 µM
Cc1c(-c2nc(Nc3ccc(N4CCC5(CC4)CN(C)C5)cn3)ncc2F)sc2c(C(C)C)cn(C)c(=O)c12 [Example 91, 2-(5-Fluoro-2-((5-(2-methyl-2,7-diazaspiro[3.5]nonan-7-yl)pyridin-2-yl)amino)pyrimidin-4-yl)-7-isopropyl-3,5-dimethylthieno[3,2-c]pyridin-4(5H)-one]	< 1	0.02 to 0.2 µM	≤ 0.02 µM	≤ 0.02 µM
Cc1c(-c2nc(Nc3ccc(C4CCN(C)CC4)nn3)ncc2F)sc2c(C(C)C)cn(C)c(=O)c12 [Example 93, 2-(5-Fluoro-2-((6-(1-methylpiperidin-4-yl)pyridazin-3-yl)amino)pyrimidin-4-yl)-7-isopropyl-3,5-dimethylthieno[3,2-c]pyridin-4(5H)-one]	< 1	0.02 to 0.2 µM	0.02 to 0.2 µM	≤ 0.02 µM
Cc1c(-c2nc(Nc3ccc(C4CCN(C(C)C)C4)cn3)ncc2F)sc2c(C(C)C)cn(C)c(=O)c12 (centres unmarked) [Example 95, 2-(5-Fluoro-2-((5-(1-isopropylpyrrolidin-3-yl)pyridin-2-yl)amino)pyrimidin-4-yl)-7-isopropyl-3,5-dimethylthieno[3,2-c]pyridin-4(5H)-one]	1 to 3	0.02 to 0.2 µM	0.02 to 0.2 µM	≤ 0.02 µM
Cc1cnc(Nc2ccc(C3CCN(C)CC3)cn2)nc1-c1cc2c(=O)n(C)cc(C(C)C)c2s1 [Example 97, 7-Isopropyl-5-methyl-2-(5-methyl-2-((5-(1-methylpiperidin-4-yl)pyridin-2-yl)amino)pyrimidin-4-yl)thieno[3,2-c]pyridin-4(5H)-one]	< 1	≤ 0.02 µM	≤ 0.02 µM	≤ 0.02 µM
CC(C)c1c2sc(-c3nc(Nc4ccc(C5CCN(C)CC5)cn4)ncc3F)cc2nn1C [Example 99, 5-Fluoro-4-(3-isopropyl-2-methyl-2H-thieno[3,2-c]pyrazol-5-yl)-N-(5-(1-methylpiperidin-4-yl)pyridin-2-yl)pyrimidin-2-amine]	> 3	0.02 to 0.2 µM	0.02 to 0.2 µM	≤ 0.02 µM
CCN1CCN(c2ccc(Nc3ncc(F)c(-c4sc5c(C(C)(O)C(F)(F)F)n(C)nc5c4C)n3)nc2)CC1 (centres unmarked) [Example 102, 2-(5-(2-((5-(4-Ethylpiperazin-1-yl)pyridin-2-yl)amino)-5-fluoropyrimidin-4-yl)-2,6-dimethyl-2H-thieno[3,2-c]pyrazol-3-yl)-1,1,1-trifluoropropan-2-ol]	1 to 3	0.02 to 0.2 µM	≤ 0.02 µM	≤ 0.02 µM
